From US12532889B2, “Herbicidal compositions comprising glufosinate” (BASF SE, priority 2023, dated 2026) come the findings set out here.

Common to all, as to assay: Post-emergence application in field trials (Example A)
Type in all cases: in vivo

For test [1], the system named is ELEIN (Eleusine indica). The following applies: A-1 25, B-6 252 g ai/ha, water 400 l/ha.
Test [2] relates to SETPA (Setaria palmifolia). The conditions noted are these: Table 5.3; SETPA growth stage 76-77; A-1 25, B-6 252 g ai/ha; 28 DAT; water 300 l/ha. The method, boiled down:
(§1)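 Weeds in field plots (natural infestation or seeded) are treated after emergence. Damage is then assessed at set days after treatment relative to untreated plants, scored 0–100%. Mixture values are compared with Colby-expected additive activity E.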

Test [3] concerns AMASP (Amaranthus spinosus). The conditions noted are these: Table 5.5; AMASP growth stage 72; A-1 25, B-6 252 g ai/ha; 28 DAT; water 400 l/ha. In outline: as §1
The test system of test [4] is GLXMA (Glycine max). The following applies: 21 DAT; B-6 252 g ai/ha; growth stage 13; height 5-10 cm. The method, boiled down:
as §1

Test [5] concerns DIGIN = TRCIN (Digitaria insularis). The method, then:
(§2) In the examples below, using the method of S. R. Colby (1967) “Calculating synergistic and antagonistic responses of herbicide combinations”, Weeds 15, p. 22ff., the value E, which is expected if the activity of the individual active compounds is only additive, was calculated:
(§3) [formula] • where • X=percent activity using active herbicide A at an application rate a; • Y=percent activity using active herbicide B (e.g. glufosinate) at an application rate b; • E=expected activity (in %) by A+B at application rates a+b.
(§4) If the value found experimentally is higher than the value E calculated according to Colby, a synergistic effect is present.
(§5) On field test sites, natural weed infestation or seeded weeds were treated post-emergence of the weeds.
(§6) In the field trials, the weeds were treated as indicated below.
(§7) In the following experiments, the herbicidal activity for the individual herbicidal compositions (solo and mixture applications) was assessed at the indicated days after treatment (DAT). The assessments for the damage on undesired weeds caused by the composition was carried out using a scale from 0 to 100%, compared to the untreated control plants. Here, 0 means no damage and 100 means complete destruction of the plants.
(§8) Post-emergence application of Herbicide A-1 (A-1) and glufosinate ammonium (B-2) in Field Trials:
(§9) Herbicide A-1 (50 g/l), glufosinate ammonium (200 g/l) and optional herbicide C were, together with addition of 0.5% v/v MSO (methylated seed oil) as adjuvant, formulated in water as distribution medium as indicated and sprayed with commercial flat fan nozzles.

Test [6] has as its system EPHHI (Euphorbia hirta). The conditions noted are these: Table 1.2; EPHHI height 25 cm; B-2 solo 400 g ai/ha; 14 DAT; water volume 100 l/ha; 0.5% v/v MSO. The protocol: as §2, §3, §4, §5, §6, §7, §8, §9
Test [7] deals with CYPDI (Cyperus difformis). The conditions noted are these: CYPDI height 25 cm. The method, then:
as §2, §3, §4, §5, §6, §7, §8, §9

Test [8] relates to SPCHI (Spermacoce hispida). The following applies: Table 1.2; SPCHI height 25 cm; B-2 solo 400 g ai/ha; 14 DAT; water volume 100 l/ha; 0.5% v/v MSO. The method, then: as §2, §3, §4, §5, §6, §7, §8, §9
The test system of test [9] is DIGHO (Digitaria horizontalis). The following applies: Table 1.4, DIGHO growth stage 24, 14 DAT, water 200 l/ha. The method, boiled down: as §1
Test [10] deals with BIDPI (Bidens pilosa). The following applies: Table 1.14; BIDPI height 20-45 cm; A-1 50, B-2 400 g ai/ha; 21 DAT; water 100 l/ha. The method, boiled down:
as §1

The subject of test [11] is GALAP (Galium aparine). The conditions noted are these: Table 3.1; GALAP growth stage 11-16, height 2-20 cm; A-1 18, B-2 500 g ai/ha; 28 DAT; water 100 l/ha. In outline:
as §1

In test [12] the test system is ERISS (Erigeron sp.). The conditions noted are these: Table 1.8, ERISS height 30-50 cm, 14 DAT, water 200 l/ha. In outline:
as §1

The subject of test [13] is BRAPL (Brachiaria plantaginea). The following applies: BRAPL growth stage 24, A-1 50, B-2 400 g ai/ha, water 200 l/ha. In outline: as §1
Test [14] concerns POLCO (Polygonum convolvulus). The conditions noted are these: Table 3.2, A-1 12.5, B-2 500 g ai/ha, 14 DAT, water 100 l/ha. In outline:
as §1

Test [15] has as its system HORVS (Hordeum vulgare (spring barley)). The conditions noted are these: Table 3.1, HORVS volunteer barley, growth stage 22-24, height 32-35 cm, 28 DAT, water 100 l/ha. The method, boiled down: as §1

In the case of `CP(=O)(O)CC[C@H](N)C(=O)O.N` [B-6, glufosinate-P-ammonium], the “% herbicidal activity” value was determined as 0% in test [1] (Table 5.1, ELEIN height 5-20 cm, 21 DAT); 40% in test [1] (Table 5.6, ELEIN growth stage 14-15, height 9-14 cm, 28 DAT); 32% in test [2]; 84% in test [3]; 70% in [4].
On to `CP(=O)(O)CCC(N)C(=O)O` (stereo not drawn) [B-2, glufosinate-ammonium], for which the “% herbicidal activity” value in test [5] (Table 1.13, DIGIN height 20-30 cm, A-1 50, B-2 400 g ai/ha, 21 DAT, water 100 l/ha) was 20%; in [5] (Table 1.17, DIGIN height 20-30 cm, A-1 50, B-2 400 g ai/ha, 21 DAT, water 200 l/ha), 30%; in test [5] (Table 1.19, DIGIN height 20-30 cm, A-1 50, B-2 400 g ai/ha, 21 DAT, water 200 l/ha), 30%; in test [5] (Table 1.20, DIGIN height 60-80 cm, A-1 50, B-2 400 g ai/ha, 21 DAT, water 200 l/ha), 57%; in test [5] (Table 1.22, DIGIN in tillering stage, height 5-15 cm, A-1 50, B-2 400 g ai/ha, 21 DAT, water 200 l/ha), 35%; in [5] (Table 1.22, DIGIN in tillering stage, height 5-15 cm, A-1 50, B-2 600 g ai/ha, 21 DAT, water 200 l/ha), 70%. Besides, the “% herbicidal activity” value is listed as 55% in test [5] (Table 1.23, DIGIN growth stage 16-18, height 15-25 cm, A-1 50, B-2 400 g ai/ha, 21 DAT, water 200 l/ha); 65% in test [5] (Table 1.23, DIGIN growth stage 16-18, height 15-25 cm, A-1 50, B-2 600 g ai/ha, 21 DAT, water 200 l/ha); 17% in [5] (Table 1.24, DIGIN growth stage 67, height 100 cm, A-1 50, B-2 400 g ai/ha, 21 DAT, water 200 l/ha); 37% in test [5] (Table 1.24, DIGIN growth stage 67, height 100 cm, A-1 50, B-2 600 g ai/ha, 21 DAT, water 200 l/ha); 25% in test [5] (Table 1.25, DIGIN in tillering stage, height 8-20 cm, A-1 50, B-2 400 g ai/ha, 21 DAT, water 200 l/ha); 43% in test [5] (Table 1.25, DIGIN in tillering stage, height 8-20 cm, A-1 50, B-2 600 g ai/ha, 21 DAT, water 200 l/ha). The “% herbicidal activity” value in test [5] (Table 1.26, DIGIN in tillering stage, height 50-70 cm, A-1 50, B-2 400 g ai/ha, 21 DAT, water 200 l/ha) is listed as 15%; in test [5] (Table 1.26, DIGIN in tillering stage, height 50-70 cm, A-1 50, B-2 600 g ai/ha, 21 DAT, water 200 l/ha), 15%; in test [5] (Table 1.3, DIGIN height 60-80 cm, A-1 25, B-2 400 g ai/ha, 14 DAT, water 200 l/ha), 68%; in [5] (Table 1.3, DIGIN height 60-80 cm, A-1 50, B-2 400 g ai/ha, 14 DAT, water 200 l/ha), 68%; in test [5] (Table 1.5, DIGIN growth stage 16-18, height 15-25 cm, A-1 50, B-2 400 g ai/ha, 14 DAT, water 200 l/ha), 60%; in test [5] (Table 1.5, DIGIN growth stage 16-18, height 15-25 cm, A-1 50, B-2 600 g ai/ha, 14 DAT, water 200 l/ha) it was 70%. Further, the “% herbicidal activity” value was found to be 17% in [5] (Table 1.7, DIGIN height 50-70 cm, tillering stage, B-2 solo 600 g ai/ha, 14 DAT, water volume 200 l/ha, 0.5% v/v MSO); 20% in [6]; 10% in test [7] (Table 1.15, A-1 25, B-2 400 g ai/ha, 21 DAT, water 100 l/ha); 20% in [7] (Table 1.2, B-2 solo 400 g ai/ha, 14 DAT, water volume 100 l/ha, 0.5% v/v MSO); 20% in test [8]; 30% in test [9] (A-1 25, B-2 400 g ai/ha). Also, the “% herbicidal activity” value in [9] (A-1 50, B-2 400 g ai/ha) was 30%; in [10] it was 55%; in [11], 27%; in [12] (A-1 25, B-2 400 g ai/ha) it was 40%; in test [12] (A-1 50, B-2 400 g ai/ha), 40%; in [13] (Table 1.18, 21 DAT), 18%. For the same compound, the “% herbicidal activity” value stood at 55% in test [13] (Table 1.4, 14 DAT); 28% in test [14]; 15% in test [15] (A-1 12.5, B-2 500 g ai/ha); 15% in test [15] (A-1 18, B-2 500 g ai/ha).
